Experimental data: PubChem BioAssay AID1259407 (Chemical Carcinogenesis Research Information System (CCRIS), 2018)
Activity calls are given as the source filed them. How the calls were made is not given here.

Test system: CCRIS mutagenicity, Ames/micronucleus/aberration tests
Assay: CCRIS mutagenicity studies
[1] = Test System: AMES SALMONELLA TYPHIMURIUM, Strain/Indicator: TA100, Metabolic Activation: NONE, Method: PREINCUBATION
[2] = Test System: AMES SALMONELLA TYPHIMURIUM, Strain/Indicator: TA100, Metabolic Activation: RAT, LIVER, S-9, PCB, Method: PREINCUBATION
[3] = Test System: AMES SALMONELLA TYPHIMURIUM, Strain/Indicator: TA98, Metabolic Activation: NONE, Method: PREINCUBATION

CC(O)CN(CC(C)O)N=O (stereo unspecified)
mutagenic call (Test System: AMES SALMONELLA TYPHIMURIUM, Strain/Indicator: TA100, Metabolic Activation: HAMSTER, LIVER, S-9, 3-METHYLCHOLANTHRENE, Method: PREINCUBATION): inactive; negative | mutagenic call (Test System: AMES SALMONELLA TYPHIMURIUM, Strain/Indicator: TA100, Metabolic Activation: HAMSTER, LIVER, S-9, PHENOBARBITAL, Method: PREINCUBATION): active; positive | mutagenic call (Test System: AMES SALMONELLA TYPHIMURIUM, Strain/Indicator: TA100, Metabolic Activation: HAMSTER, LIVER, S-9, Method: PREINCUBATION): inactive; negative | mutagenic call (Test System: AMES SALMONELLA TYPHIMURIUM, Strain/Indicator: TA100, Metabolic Activation: HUMAN, LIVER, S-9, Method: PREINCUBATION): inactive; negative | mutagenic call (Test System: AMES SALMONELLA TYPHIMURIUM, Strain/Indicator: TA100, Metabolic Activation: MONKEY, LIVER, S-9, Method: PREINCUBATION): inactive; negative | mutagenic call (Test System: AMES SALMONELLA TYPHIMURIUM, Strain/Indicator: TA100, Metabolic Activation: MOUSE, LIVER, S-9, 3-METHYLCHOLANTHRENE, Method: PREINCUBATION): inactive; negative | mutagenic call (Test System: AMES SALMONELLA TYPHIMURIUM, Strain/Indicator: TA100, Metabolic Activation: MOUSE, LIVER, S-9, PHENOBARBITAL, Method: PREINCUBATION): active; positive | mutagenic call (Test System: AMES SALMONELLA TYPHIMURIUM, Strain/Indicator: TA100, Metabolic Activation: MOUSE, LIVER, S-9, Method: PREINCUBATION): inactive; negative | mutagenic call [1]: inactive; negative | mutagenic call (Test System: AMES SALMONELLA TYPHIMURIUM, Strain/Indicator: TA100, Metabolic Activation: RABBIT, LIVER, S-9, Method: PREINCUBATION): inactive; negative | mutagenic call (Test System: AMES SALMONELLA TYPHIMURIUM, Strain/Indicator: TA100, Metabolic Activation: RAT, LIVER, CYTOSOL, PCB, Method: PREINCUBATION): inactive; negative | mutagenic call (Test System: AMES SALMONELLA TYPHIMURIUM, Strain/Indicator: TA100, Metabolic Activation: RAT, LIVER, MICROSOMES AND CYTOSOL, PCB, Method: PREINCUBATION): active; positive | mutagenic call (Test System: AMES SALMONELLA TYPHIMURIUM, Strain/Indicator: TA100, Metabolic Activation: RAT, LIVER, MICROSOMES AND G6PDH, PCB, Method: PREINCUBATION): active; positive | mutagenic call (Test System: AMES SALMONELLA TYPHIMURIUM, Strain/Indicator: TA100, Metabolic Activation: RAT, LIVER, MICROSOMES, PCB, Method: PREINCUBATION): inactive; negative | mutagenic call (Test System: AMES SALMONELLA TYPHIMURIUM, Strain/Indicator: TA100, Metabolic Activation: RAT, LIVER, S-9 (HEATED), PCB, Method: PREINCUBATION): inactive; negative | mutagenic call (Test System: AMES SALMONELLA TYPHIMURIUM, Strain/Indicator: TA100, Metabolic Activation: RAT, LIVER, S-9 (WITHOUT NADP+), PCB, Method: PREINCUBATION): inactive; negative | mutagenic call (Test System: AMES SALMONELLA TYPHIMURIUM, Strain/Indicator: TA100, Metabolic Activation: RAT, LIVER, S-9, 3-METHYLCHOLANTHRENE, Method: PREINCUBATION): inactive; negative | mutagenic call (Test System: AMES SALMONELLA TYPHIMURIUM, Strain/Indicator: TA100, Metabolic Activation: RAT, LIVER, S-9, AROCLOR 1254, Method: PREINCUBATION): active; positive | mutagenic call [2]: active; positive | mutagenic call (Test System: AMES SALMONELLA TYPHIMURIUM, Strain/Indicator: TA100, Metabolic Activation: RAT, LIVER, S-9, PHENOBARBITAL, Method: PREINCUBATION): active; positive | mutagenic call (Test System: AMES SALMONELLA TYPHIMURIUM, Strain/Indicator: TA100, Metabolic Activation: RAT, LIVER, S-9, Method: PREINCUBATION): inactive; negative | mutagenic call (Test System: AMES SALMONELLA TYPHIMURIUM, Strain/Indicator: TA100, Method: PREINCUBATION): active; positive | mutagenic call (Test System: AMES SALMONELLA TYPHIMURIUM, Strain/Indicator: TA104, Metabolic Activation: RAT, LIVER, S-9, AROCLOR 1254, Method: PREINCUBATION): inactive; negative | mutagenic call (Test System: AMES SALMONELLA TYPHIMURIUM, Strain/Indicator: TA1535, Metabolic Activation: RAT, LIVER, S-9, AROCLOR 1254, Method: PREINCUBATION): active; positive | mutagenic call (Test System: AMES SALMONELLA TYPHIMURIUM, Strain/Indicator: TA1975, Metabolic Activation: RAT, LIVER, S-9, AROCLOR 1254, Method: PREINCUBATION): active; positive | mutagenic call (Test System: CHINESE HAMSTER V-79, Strain/Indicator: V-79/OUABAIN, Metabolic Activation: HAMSTER, HEPATOCYTES, Method: CELL-MEDIATED): active; positive

O=CC(=O)c1ccccc1
mutagenic call (Test System: AMES SALMONELLA TYPHIMURIUM, Strain/Indicator: TA98, Metabolic Activation: HAMSTER, LIVER, S-9, AROCLOR 1254, Method: STANDARD PLATE): active; positive | mutagenic call [3]: inactive; negative | mutagenic call (Test System: AMES SALMONELLA TYPHIMURIUM, Strain/Indicator: TA98, Metabolic Activation: NONE, Method: STANDARD PLATE): active; positive | mutagenic call (Test System: AMES SALMONELLA TYPHIMURIUM, Strain/Indicator: TA98, Metabolic Activation: RAT, LIVER, S-9, AROCLOR 1254, Method: STANDARD PLATE): active; positive | mutagenic call (Test System: AMES SALMONELLA TYPHIMURIUM, Strain/Indicator: TA98, Metabolic Activation: RAT, LIVER, S-9, PCB, Method: PREINCUBATION): inactive; negative | mutagenic call (Test System: AMES SALMONELLA TYPHIMURIUM, Strain/Indicator: TA100, Metabolic Activation: HAMSTER, LIVER, S-9, AROCLOR 1254, Method: STANDARD PLATE): active; positive | mutagenic call [1]: active; positive | mutagenic call (Test System: AMES SALMONELLA TYPHIMURIUM, Strain/Indicator: TA100, Metabolic Activation: NONE, Method: STANDARD PLATE): active; positive | mutagenic call (Test System: AMES SALMONELLA TYPHIMURIUM, Strain/Indicator: TA100, Metabolic Activation: RAT, LIVER, S-9, AROCLOR 1254, Method: STANDARD PLATE): active; positive | mutagenic call [2]: inactive; negative | mutagenic call (Test System: MOUSE LYMPHOMA, Strain/Indicator: L5178Y (TK+/TK-), Metabolic Activation: NONE, Method: SUSPENSION/PLATE): active; positive | mutagenic call (Test System: Mouse lymphoma, Strain/Indicator: L5178Y (tk+/tk-), Metabolic Activation: None, Method: Suspension/plate): active; positive | mutagenic call (Test System: Mouse lymphoma, Strain/Indicator: L5178Y (tk+/tk-), Metabolic Activation: Rat, Liver, S-9, Aroclor 1254, Method: Suspension/plate): inactive; negative

CCCCCCC(O)C/C=C\CCCCCCCC(=O)OCC(COC(=O)CCCCCCC/C=C\CC(O)CCCCCC)OC(=O)CCCCCCC/C=C\CC(O)CCCCCC (stereo unspecified)
mutagenic call (Test System: AMES SALMONELLA TYPHIMURIUM, Strain/Indicator: TA97, Metabolic Activation: HAMSTER, LIVER, S-9, AROCLOR 1254 (10 OR 30%), Method: PREINCUBATION): inactive; negative | mutagenic call (Test System: AMES SALMONELLA TYPHIMURIUM, Strain/Indicator: TA97, Metabolic Activation: NONE, Method: PREINCUBATION): inactive; negative | mutagenic call (Test System: AMES SALMONELLA TYPHIMURIUM, Strain/Indicator: TA97, Metabolic Activation: RAT, LIVER, S-9, AROCLOR 1254 (10 OR 30%), Method: PREINCUBATION): inactive; negative | mutagenic call (Test System: AMES SALMONELLA TYPHIMURIUM, Strain/Indicator: TA98, Metabolic Activation: HAMSTER, LIVER, S-9, AROCLOR 1254 (10 OR 30%), Method: PREINCUBATION): inactive; negative | mutagenic call [3]: inactive; negative | mutagenic call (Test System: AMES SALMONELLA TYPHIMURIUM, Strain/Indicator: TA98, Metabolic Activation: RAT, LIVER, S-9, AROCLOR 1254 (10 OR 30%), Method: PREINCUBATION): inactive; negative | mutagenic call (Test System: AMES SALMONELLA TYPHIMURIUM, Strain/Indicator: TA100, Metabolic Activation: HAMSTER, LIVER, S-9, AROCLOR 1254 (10 OR 30%), Method: PREINCUBATION): inactive; negative | mutagenic call [1]: inactive; negative | mutagenic call (Test System: AMES SALMONELLA TYPHIMURIUM, Strain/Indicator: TA100, Metabolic Activation: RAT, LIVER, S-9, AROCLOR 1254 (10 OR 30%), Method: PREINCUBATION): inactive; negative | mutagenic call (Test System: AMES SALMONELLA TYPHIMURIUM, Strain/Indicator: TA1535, Metabolic Activation: HAMSTER, LIVER, S-9, AROCLOR 1254 (10 OR 30%), Method: PREINCUBATION): inactive; negative | mutagenic call (Test System: AMES SALMONELLA TYPHIMURIUM, Strain/Indicator: TA1535, Metabolic Activation: NONE, Method: PREINCUBATION): inactive; negative | mutagenic call (Test System: AMES SALMONELLA TYPHIMURIUM, Strain/Indicator: TA1535, Metabolic Activation: RAT, LIVER, S-9, AROCLOR 1254 (10 OR 30%), Method: PREINCUBATION): inactive; negative
